Values quoted from earlier work, collected in article PMC9063426, “MAP kinases differentially bind and phosphorylate NOS3 via two unique NOS3 sites” (FEBS Open Bio, 2022).
Where no end group is shown, it is not given here.

Key:
NOS3 = conditions: endothelial cells, inhibition and dominant negative experiments, via S114 phosphorylation; ref [10]; cited from earlier work
ERK-NOS3 complexes = tested on: ERK-NOS3 complexes; set-up: method as in PMID 10899167; conditions: BAECs treated with bradykinin; ref [9]; cited from earlier work

Substance: JNK2: JNK2, shown to inhibit cellular NO production
- cellular NO production (NOS3): inhibited cellular NO production

Substance: RPPGFSPFR [bradykinin]
- effect on ERK-NOS3 complexes (ERK-NOS3 complexes): caused ERK to disassociate from NOS3 complexes and over time the complex reassociated
